We go through 15 compounds from patent US20260184726A1, “HETEROCYCLIC COMPOUNDS AS KINASE INHIBITORS, COMPOSITIONS, AND METHODS OF USE THEREOF” (JS INNOMED HOLDINGS LTD., priority 2022, published 2026).

In one assay the test system is BAF3 cells. Nature of the assay: BAF3 Cell Proliferation Assay (CellTiter-Glo, without RET driven, IL-3). Type of assay: cell-based. As to conditions: Mus musculus; growth inhibition in BAF3 cells, 72 hours, with IL-3; read-out: BAF3 Cellular Activity. Here is the method:
Compounds disclosed herein were tested for the inhibition BAF3 cells proliferation without RET driven by CellTiter-Glo assay. In this assay, a complete media was prepared by adding 10% fetal bovine serum and 1 ng/ml IL-3 to RPMI-1640 medium (Life technology) for BAF3 cells. BAF3 cells were added to each of 88 wells of a 96 well plate at a seeding density of 2,000 cells/well/95 μL. The cells were allowed to attach to the plate by incubating at 37° C. for 24 hours. The compound was dissolved in DMSO (SIGMA). A solution of test compound was prepared in complete media by serial dilution to obtain the following concentrations: 200 μM, 66.7 μM, 22.2 μM, 7.4 μM, 2.5 μM, 0.82 μM, 0.27 μM, 0.091 μM and […]. The test compound solution (5 μL) was added to each of 80 cell-containing wells. The final concentrations of the compound were following: 10 μM, 3.33 μM, 1.11 μM, 0.37 μM, 0.12 μM, 0.041 μM, 0.014 μM, 0.0046 μM and 0.0015 μM. The final concentration of DMSO is 0.1%. To the 8 remaining cell-containing wells, only complete media (containing 0.1% DMSO) was added to form a control group in order to measure maximal proliferation. To the remaining 8 empty wells, complete media was added to for a vehicle control group in order to measure background. The plates were incubated at 37° C. for 72 hours. 50 μl of CellTiter-Glo® Reagent was added to each well. The contents were mixed for 2 minutes on an orbital shaker to induce cell lysis, and then were incubated at room temperature for 10 minutes to stabilize luminescent signal. Luminescence was recorded on Paradigm. Cell viability (CV %) was calculated relative to vehicle (DMSO) treated control wells. The IC50 was calculated using GraphPad Prism.
On the technique in general: Cellular ATP, detected with luciferase, serves as a proxy for viable cell number.

A further assay has as its target T1, BAF3-KIF5B-RET cells (Homo sapiens, UniProt P07949).
T1 construct: fused on or other part: P33176 (Kinesin-1 heavy chain)
Kind of assay: BAF3-KIF5B-RET Cell Proliferation Assay (CellTiter-Glo). Type of assay: cell-based. As to conditions: growth inhibition, 72 hours; Table 2; read-out: BA/F3-KIF5B-RET Cellular activity. Here is the method: Compounds disclosed herein were tested for the inhibition of RET by a cancer cell proliferation assay commonly known as CellTiter-Glo assay. In this assay, a complete media was prepared by adding 10% fetal bovine serum to RPMI-1640 medium (Life technology) for RET-driven cancer cells (BAF3-FIF5B-RET, Ba/F3-KIF5B-RET-G810R, Ba/F3-TEL-RET-M918T or Ba/F3-KIF5B-RET-V804M). Individual RET-driven type of cells were added to each of 88 wells of a 96 well plate at a seeding density of 2,000 cells/well/95 μL. The cells were allowed to attach to the plate by incubating at 37° C. for 24 hours. The compound was dissolved in DMSO (SIGMA). A solution of test compound was prepared in complete media by serial dilution to obtain the following concentrations: 20 μM, 6.67 μM, 2.22 μM, 0.74 μM, 0.25 μM, 0.082 μM, 0.027 μM, 0.0091 μM and 0.0030 μM. The test compound solution (5 μL) was added to each of 80 cell-containing wells. The final concentrations of the compound were following: 1 μM, 0.33 μM, 0.11 μM, 0.037 μM, 0.012 μM, 0.0041 μM, 0.0014 μM, 0.00046 μM and 0.00015 μM. The final concentration of DMSO is 0.1%. To the 8 remaining cell-containing wells, only complete media (containing 0.1% DMSO) was added to form a control group in order to measure maximal proliferation. To the remaining 8 empty wells, complete media was added to for a vehicle control group in order to measure background. The plates were incubated at 37° C. for 72 hours. 50 μl of CellTiter-Glo® Reagent was added to each well. Mix contents for 2 minutes on an orbital shaker to induce cell lysis. Incubate at room temperature for 10 minutes to stabilize luminescent signal. Record luminescence on Paradigm. Cell viability (CV %) was calculated relative to vehicle (DMSO) treated control wells. The IC50 was calculated using GraphPad Prism.

pIC50: −log10 of the molar value.

T1 sequence (P07949 whole entry, change not shown, the tested form may be a part): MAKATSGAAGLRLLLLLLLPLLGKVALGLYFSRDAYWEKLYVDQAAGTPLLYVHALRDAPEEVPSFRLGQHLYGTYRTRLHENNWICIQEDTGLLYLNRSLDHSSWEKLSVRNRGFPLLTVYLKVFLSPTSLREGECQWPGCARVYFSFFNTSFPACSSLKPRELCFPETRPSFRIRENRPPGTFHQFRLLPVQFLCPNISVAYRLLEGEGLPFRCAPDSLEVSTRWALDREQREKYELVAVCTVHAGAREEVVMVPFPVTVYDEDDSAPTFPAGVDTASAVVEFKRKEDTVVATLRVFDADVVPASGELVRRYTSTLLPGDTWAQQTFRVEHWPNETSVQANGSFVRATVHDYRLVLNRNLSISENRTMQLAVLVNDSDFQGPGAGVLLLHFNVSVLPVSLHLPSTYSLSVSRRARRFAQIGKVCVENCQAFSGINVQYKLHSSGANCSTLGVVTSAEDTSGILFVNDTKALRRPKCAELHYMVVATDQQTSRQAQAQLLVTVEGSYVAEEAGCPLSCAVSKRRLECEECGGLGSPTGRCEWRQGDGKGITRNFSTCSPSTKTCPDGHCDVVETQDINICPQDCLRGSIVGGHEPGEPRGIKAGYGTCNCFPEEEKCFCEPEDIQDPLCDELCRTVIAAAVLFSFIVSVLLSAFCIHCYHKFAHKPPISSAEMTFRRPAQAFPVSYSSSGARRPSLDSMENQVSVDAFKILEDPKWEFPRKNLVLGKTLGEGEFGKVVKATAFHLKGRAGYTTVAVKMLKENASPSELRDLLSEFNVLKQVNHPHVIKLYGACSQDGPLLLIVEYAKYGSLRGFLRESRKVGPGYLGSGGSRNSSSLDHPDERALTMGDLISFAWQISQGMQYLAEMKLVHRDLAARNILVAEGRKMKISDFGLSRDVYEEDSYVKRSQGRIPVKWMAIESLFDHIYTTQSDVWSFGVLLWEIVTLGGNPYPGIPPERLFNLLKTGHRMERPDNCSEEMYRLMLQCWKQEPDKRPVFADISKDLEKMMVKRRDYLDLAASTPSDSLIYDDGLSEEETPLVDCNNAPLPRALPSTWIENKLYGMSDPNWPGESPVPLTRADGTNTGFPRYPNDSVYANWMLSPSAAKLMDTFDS

As to `COc1ccc(CN2C3CC2CN(c2ccc(-c4cc(-c5cncc(C(C)(C)O)c5)cn5ncc(C#N)c45)cn2)C3)cn1` [Example 7, 6-(5-(2-hydroxypropan-2-yl)pyridin-3-yl)-4-(6-(6-((6-methoxypyridin-3-yl)methyl)-3,6-diazabicyclo[3.1.1]heptan-3-yl)pyridin-3-yl)pyrazolo[1,5-a]pyridine-3-carbonitrile], in the assay on BAF3 cells, the pIC50 was < 5.00. In addition, the GI50 at BAF3-KIF5B-RET cells is 48.1 nM.

For `COc1ccc(CN2C3CC2CN(c2ccc(-c4cc(-c5ccn(CC(C)(C)O)n5)cn5ncc(C#N)c45)cn2)C3)cn1` [Example 34, 6-(1-(2-hydroxy-2-methylpropyl)-1H-pyrazol-3-yl)-4-(6-(6-((6-methoxypyridin-3-yl)methyl)-3,6-diazabicyclo[3.1.1]heptan-3-yl)pyridin-3-yl)pyrazolo[1,5-a]pyridine-3-carbonitrile], the pIC50 in the assay on BAF3 cells is 5.75. The GI50 on BAF3-KIF5B-RET cells amounted to 0.7 nM.

Turning to `COc1ccc(CN2C3CC2CN(c2ccc(-c4cc(-c5ccc(C(C)(C)N)cn5)cn5ncc(C#N)c45)cn2)C3)cn1` [Example 16, 6-(5-(2-aminopropan-2-yl)pyridin-2-yl)-4-(6-(6-((6-methoxypyridin-3-yl)methyl)-3,6-diazabicyclo[3.1.1]heptan-3-yl)pyridin-3-yl)pyrazolo[1,5-a]pyridine-3-carbonitrile], in the assay with BAF3 cells, the pIC50 was 5.97. For the same compound, the GI50 at BAF3-KIF5B-RET cells was 2.2 nM.

Consider `COc1ccc(CN2C3CC2CN(c2ccc(-c4cc(-c5ccc(C6(N)CC6)cn5)cn5ncc(C#N)c45)cn2)C3)cn1` [Example 17, 6-(5-(1-aminocyclopropyl)pyridin-2-yl)-4-(6-(6-((6-methoxypyridin-3-yl)methyl)-3,6-diazabicyclo[3.1.1]heptan-3-yl)pyridin-3-yl)pyrazolo[1,5-a]pyridine-3-carbonitrile], for which, in the assay with BAF3 cells, the pIC50 is 5.56. Besides, at BAF3-KIF5B-RET cells, the GI50 was 4.2 nM.

Regarding `COc1ccc(CN2C3CC2CN(c2ccc(-c4cc(-c5ccc(C(C)(C)O)nn5)cn5ncc(C#N)c45)cn2)C3)cn1` [Example 19, 6-(6-(2-hydroxypropan-2-yl)pyridazin-3-yl)-4-(6-(6-((6-methoxypyridin-3-yl)methyl)-3,6-diazabicyclo[3.1.1]heptan-3-yl)pyridin-3-yl)pyrazolo[1,5-a]pyridine-3-carbonitrile], the pIC50 with BAF3 cells is 5.90. The GI50 at BAF3-KIF5B-RET cells was 1.7 nM.

On to `COc1ccc(CN2C3CC2CN(c2ccc(-c4cc(-c5ccc(OCC(C)(C)O)cn5)cn5ncc(C#N)c45)cn2)C3)cn1` [Example 32, 6-(5-(2-hydroxy-2-methylpropoxy)pyridin-2-yl)-4-(6-(6-((6-methoxypyridin-3-yl)methyl)-3,6-diazabicyclo[3.1.1]heptan-3-yl)pyridin-3-yl)pyrazolo[1,5-a]pyridine-3-carbonitrile], for which the pIC50 in the assay on BAF3 cells was 5.79. Further, the GI50 on BAF3-KIF5B-RET cells worked out at 1.4 nM.

Regarding `COc1ccc(CN2C3CC2CN(c2ccc(-c4cc(-c5ncc(C(C)(C)O)cc5F)cn5ncc(C#N)c45)cn2)C3)cn1` [Example 24, 6-(3-fluoro-5-(2-hydroxypropan-2-yl)pyridin-2-yl)-4-(6-(6-((6-methoxypyridin-3-yl)methyl)-3,6-diazabicyclo[3.1.1]heptan-3-yl)pyridin-3-yl)pyrazolo[1,5-a]pyridine-3-carbonitrile], in the assay on BAF3 cells, the pIC50 was 5.60. In addition, the GI50 on BAF3-KIF5B-RET cells was 3.5 nM.

For `CC(C)(O)c1ccc(-c2cc(-c3ccc(N4C[C@@H]5[C@H](C4)[C@@H]5NC(=O)c4ncccc4Cl)nc3)c3c(C#N)cnn3c2)nc1` [Example 3, 3-chloro-N-((1R,5S,6r)-3-(5-(3-cyano-6-(5-(2-hydroxypropan-2-yl)pyridin-2-yl)pyrazolo[1,5-a]pyridin-4-yl)pyridin-2-yl)-3-azabicyclo[3.1.0]hexan-6-yl)picolinamide], the pIC50 in the assay with BAF3 cells is < 5.00. Further, the GI50 at BAF3-KIF5B-RET cells stood at 110 nM.

For the compound `COc1ccc(CN2C3CC2CN(c2ccc(-c4cc(-c5cnc(C(C)(C)O)cn5)cn5ncc(C#N)c45)cn2)C3)cn1` [Example 15, 6-(5-(2-hydroxypropan-2-yl)pyrazin-2-yl)-4-(6-(6-((6-methoxypyridin-3-yl)methyl)-3,6-diazabicyclo[3.1.1]heptan-3-yl)pyridin-3-yl)pyrazolo[1,5-a]pyridine-3-carbonitrile], in the assay with BAF3 cells, the pIC50 was 5.59. Also, the GI50 at BAF3-KIF5B-RET cells worked out at 3.9 nM.

In the case of `COc1ccc(C(=O)N2C3CC2CN(c2ccc(-c4cc(-c5ccc(C(C)(C)O)cn5)cn5ncc(C#N)c45)cn2)C3)cn1` [Example 25, 6-(5-(2-hydroxypropan-2-yl)pyridin-2-yl)-4-(6-(6-(6-methoxynicotinoyl)-3,6-diazabicyclo[3.1.1]heptan-3-yl)pyridin-3-yl)pyrazolo[1,5-a]pyridine-3-carbonitrile], the pIC50 in the assay with BAF3 cells is 5.18. In addition, the GI50 at BAF3-KIF5B-RET cells stood at 2.7 nM.

`COc1ccc(CN2C3CC2CN(c2ccc(-c4cc(-c5cc(C(C)(C)NC(C)=O)n(C)n5)cn5ncc(C#N)c45)cn2)C3)cn1` [Example 28, N-(2-(3-(3-cyano-4-(6-(6-((6-methoxypyridin-3-yl)methyl)-3,6-diazabicyclo[3.1.1]heptan-3-yl)pyridin-3-yl)pyrazolo[1,5-a]pyridin-6-yl)-1-methyl-1H-pyrazol-5-yl)propan-2-yl)acetamide]: in the assay with BAF3 cells, the pIC50 is 5.63. At BAF3-KIF5B-RET cells, the GI50 turned out to be 4 nM.

With `COc1ccc(CN2C3CC2CN(c2ccc(-c4cc(-c5cnn(CC(C)(C)O)c5)cn5ncc(C#N)c45)cn2)C3)cn1` [Example 35, 6-(1-(2-hydroxy-2-methylpropyl)-1H-pyrazol-4-yl)-4-(6-(6-((6-methoxypyridin-3-yl)methyl)-3,6-diazabicyclo[3.1.1]heptan-3-yl)pyridin-3-yl)pyrazolo[1,5-a]pyridine-3-carbonitrile], the pIC50 with BAF3 cells is 6.47. The GI50 on BAF3-KIF5B-RET cells was found to be 0.5 nM.

On to `COc1ccc(CN2C3CC2CN(c2cnc(-c4cc(-c5ccc(C(C)(C)O)cn5)cn5ncc(C#N)c45)cn2)C3)cn1` [Example 1, 6-(5-(2-hydroxypropan-2-yl)pyridin-2-yl)-4-(5-(6-((6-methoxypyridin-3-yl)methyl)-3,6-diazabicyclo[3.1.1]heptan-3-yl)pyrazin-2-yl)pyrazolo[1,5-a]pyridine-3-carbonitrile], for which the pIC50 in the assay on BAF3 cells is 5.99. Further, at BAF3-KIF5B-RET cells, the GI50 stood at 1.8 nM.

As to `COc1ccc(C(=O)NC23CC4CC(C2)N(c2cnc(-c5cc(-c6ccc(C(C)(C)O)cn6)cn6ncc(C#N)c56)cn2)C(C4)C3)cn1` [Example 2, N-((1R,3S,5s,7s)-2-(5-(3-cyano-6-(5-(2-hydroxypropan-2-yl)pyridin-2-yl)pyrazolo[1,5-a]pyridin-4-yl)pyrazin-2-yl)-2-azaadamantan-5-yl)-6-methoxynicotinamide], the pIC50 in the assay on BAF3 cells was 6.44. Besides, the GI50 on BAF3-KIF5B-RET cells came out at 8.9 nM.

As to `CC(C)(O)c1ccc(-c2cc(-c3ccc(N4C[C@@H]5[C@H](C4)[C@H]5NC(=O)c4ncccc4Cl)nc3)c3c(C#N)cnn3c2)nc1` [Example 21, 3-chloro-N-((1R,5S,6s)-3-(5-(3-cyano-6-(5-(2-hydroxypropan-2-yl)pyridin-2-yl)pyrazolo[1,5-a]pyridin-4-yl)pyridin-2-yl)-3-azabicyclo[3.1.0]hexan-6-yl)picolinamide], the pIC50 with BAF3 cells is 6.45. Moreover, the GI50 at BAF3-KIF5B-RET cells worked out at 28.8 nM.
